# According to patent US7351874B2, “Mouse model for fatty acid amide-related neurobehaviors” (The Scripps Research Institute, priority 2001, dated 2008):
# Entries after “also recorded” stand apart in the source; their conditions may differ.
# Assays:
# FAAH−/− and FAAH+/+ mice [1] = experiment: Locomotor activity (hypomotility), grid crossings 15 to 20 min post-injection; type: in vivo, mouse
# Experimental: (§1) All drugs were administered intraperitoneal (ip) in a mixture of 1 part ethanol: 1 part EMULPHOR alcohol (GAF Corp.; New York N.Y.): 18 parts saline (10 μl/g body weight), except naloxone was administered ip in saline.
# (§2) Locomotor activity was assessed by placing each mouse in a clear plexiglass cage (18×10×8.5 inches; l.w.h) that was marked in 7 cm square grids on the floor of the cage. The number of grids that were traversed by the hind paws was counted from 15 to 20 min post-injection. Nociception was assessed using the tail immersion assay, wherein each mouse was hand-held with approximately 1 cm of the tip of the tail immersed into a water bath maintained at 56.0° C. and the latency for the animal to withdraw its tail was scored. The cutoff was 15 sec, and the data were expressed as the percent maximum possible effect (% MPE), where % MPE=100×{(post-injection latency−pre-injection latency)/(15−pre-injection latency)}. Baseline thermal nociception was also analyzed using the hot plate test, wherein the latency to jump or lick/shake a hind paw was scored.
# FAAH−/− and FAAH+/+ mice [2] = experiment: Tail immersion assay (antinociception); type: in vivo, mouse
# Experimental: as §1, §2
# FAAH−/− and FAAH+/+ mice [3] = experiment: Catalepsy bar test; type: in vivo, mouse
# Experimental: as §1
# (§3) Catalepsy was evaluated using the bar test, in which the front paws of each subject were placed on a rod (0.75 cm diameter) that was elevated 4.5 cm above the surface. Mice that remained motionless with their paws on the bar for 10 sec (with the exception of respiratory movements) were scored as cataleptic. Rectal temperature was determined by inserting a thermocouple probe 1.2 cm into the rectum; the temperature was obtained using a telethermometer. The pre-injection rectal temperatures for FAAH^+/+ (35.6±0.2° C., n=28) and FAAH^−/− mice (35.5±0.1° C., n=30) mice were equivalent. Catalepsy and rectal temperature were assessed at 60 min post-injection unless otherwise indicated.
# FAAH−/− and FAAH+/+ mice [4] = experiment: Rectal temperature (hypothermia); type: in vivo, mouse
# Experimental: as §1, §3
# [5] = tested on: FAAH−/−, FAAH+/− and FAAH+/+ mice; experiment: Hot plate test, response latency before and after treatment; type: in vivo, mouse
# Experimental: as §2
# To test whether enhanced levels of endogenous anandamide were responsible for the analgesia observed in FAAH^−/− mice, the pain responses of these animals and FAAH^+/+ mice were tested prior to and after treatment with vehicle or with SR141716A.
# FAAH−/− and FAAH+/+ mice [6] = experiment: Neurobehavioral assays taken together (hypomotility, analgesia, catalepsy, hypothermia); type: in vivo, mouse
# Experimental: as §1, §2
# as §3, with “The pre-injection rectal temperatures for FAAH^+/+ (35.6±0.2° C., n=28) and FAAH^−/− mice (35.5±0.1° C., n=30) mice were equivalent.” left out
# FAAH−/− mice = experiment: Overt cage behavior after anandamide; type: in vivo, mouse
# Text: If startled by sound or touch, the knockout mice reacted with brief fits of spastic movement, then quickly reentered a flattened, immobile state. Anandamide-treated FAAH^−/− mice remained immobile for 2 to 4 hr, depending on dose, after which they gradually reinitiated normal cage activities, including movement, rearing, and grooming.
# [7] = tested on: FAAH(−/−), FAAH-TG(+) and FAAH(−/−), FAAH-TG(−) mice; experiment: Pharmacological effects of anandamide in mice with FAAH expression restricted to the nervous system; type: in vivo, mouse; conditions: 50 mg/kg i.p.
# Experimental: Animals were tested at 20 minutes (A) and 60 minute (B and C) following treatment with anandamide. HT−=FAAH(+/−), FAAH-TG(−); KO+=FAAH(−/−), FAAH-TG(+); KO−=FAAH(−/−), FAAH-TG(−).
# Exogenously applied and endogenously produced fatty acid amides induce a variety of behavioral effects in mammals, which may reflect either central or peripheral sites of action. In wild type mammals, FAAH is not only expressed in the central and peripheral nervous system, but also in a variety of non-nervous system peripheral tissues, including liver, kidney, and testis. […] To address this issue, the mouse FAAH cDNA was placed under the control of the neural specific enolase (NSE) promoter (Forss-Petter et al. (1990) Neuron 5, 187-197) and this construct was used to generate transgenic mice (mixed background of C57Bl/6 and Balb/c) by pronuclear injection methods following standard literature procedures (Gordon, J. W. (1993) Methods Enzymol. 225, 747-771). These animals were screened by Southern blotting for genomic incorporation of the FAAH gene and multiple FAAH-positive transgenic [FAAH-TG(+)] lines were identified. One of these FAAH-TG(+) lines was then crossed to mice heterozygotic for FAAH deletion [FAAH(+/−) mice]. To create representative mouse genotypes for biochemical and behavioral analysis, the following breeding pairs were set up: FAAH(+/−),FAAH-TG(+)×FAAH(−/−),FAAH-TG(−). […]
# [8] = cited from earlier work
# [9] = biological target: T1, fatty acid amide hydrolase (FAAH) (Mus musculus, UniProt O08914); experiment: FAAH activity assay, conversion of 14C-labeled substrates by thin layer chromatography; type: biochemical; conditions: pH 7.2
# T1 construct: Brain and liver were isolated from homozygous wild type (FAAH^+/+), heterozygous (FAAH^+/−) and homozygous knockout (FAAH^−/−) mice; from tissue; host or cells: mouse brain and liver extracts (129SvJ-C57BL/6 intercross offspring)
# T1 sequence (O08914 1-579): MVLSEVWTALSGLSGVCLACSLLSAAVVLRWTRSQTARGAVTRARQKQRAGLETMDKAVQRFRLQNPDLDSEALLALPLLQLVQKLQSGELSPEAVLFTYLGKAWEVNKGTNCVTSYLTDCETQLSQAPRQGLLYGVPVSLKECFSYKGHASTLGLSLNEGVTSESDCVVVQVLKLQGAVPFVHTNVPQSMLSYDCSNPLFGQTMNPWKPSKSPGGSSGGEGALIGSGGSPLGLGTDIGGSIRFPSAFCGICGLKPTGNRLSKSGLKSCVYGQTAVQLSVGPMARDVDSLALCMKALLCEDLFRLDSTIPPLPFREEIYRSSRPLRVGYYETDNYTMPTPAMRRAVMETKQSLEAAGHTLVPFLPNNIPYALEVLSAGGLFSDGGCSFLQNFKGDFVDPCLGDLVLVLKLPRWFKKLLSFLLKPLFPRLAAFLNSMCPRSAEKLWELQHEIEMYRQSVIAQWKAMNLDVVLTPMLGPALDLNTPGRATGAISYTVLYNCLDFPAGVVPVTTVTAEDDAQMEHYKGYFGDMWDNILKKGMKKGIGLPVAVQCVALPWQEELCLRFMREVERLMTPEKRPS
# Experimental: The mice also were examined for FAAH enzymatic activity. FAAH activity assays for oleamide and anandamide were measured by following the conversion of ^14C-labeled substrates using a thin layer chromatography assay essentially as described by Patricelli et al. (Biochemistry 38:9804-9812, 1999), except that enzyme assays were conducted at pH 7.2. […] Brain extracts from FAAH^−/− mice hydrolyzed anandamide and oleamide 50 to 100 times more slowly than brain extracts from the homozygous wild type mice.
# [10] = FAAH−/− mice, 10 mg/kg, 10 min prior to anandamide 50 mg/kg
# [11] = FAAH−/− mice, 50 mg/kg ip, 60 min post-injection
compound,measurement,setting,value
Cc1c(C(=O)NN2CCCCC2)nn(-c2ccc(Cl)cc2Cl)c1-c1ccc(Cl)cc1 [SR141716A],effect of pretreatment on anandamide-induced hypomotility,FAAH−/− and FAAH+/+ mice [1]; [10],completely blocked
same,effect of pretreatment on anandamide-induced antinociception,FAAH−/− and FAAH+/+ mice [2]; [10],completely blocked
same,effect of pretreatment on anandamide-induced catalepsy,FAAH−/− and FAAH+/+ mice [3]; [10],completely blocked
same,effect of pretreatment on anandamide-induced hypothermia,FAAH−/− and FAAH+/+ mice [4]; [10],completely blocked
same,change of hot plate response latency after treatment,"[5]; FAAH+/+ (b22 also FAAH+/−) mice, listed as SR141617A",No significant change from baseline; also recorded: modest increases in their hot plate response latencies that failed to reach significance
same,change of hot plate pain response latency after treatment,[5]; FAAH−/− mice,dramatic reduction
same,effect of pretreatment on all behavioral effects of anandamide,"FAAH−/− and FAAH+/+ mice [6]; FAAH−/− mice, 10 mg/kg ip, 10 min prior to anandamide 50 mg/kg",completely blocked
"CCCCCc1cc(O)c2c(c1)OC(C)(C)[C@@H]1CCC(C)=C[C@@H]21 [THC, (−)-Δ^9-tetrahydrocannabinol]","dose response profiles in FAAH−/− versus FAAH+/+ mice, all behavioral assays tested","FAAH−/− and FAAH+/+ mice [6]; FAAH−/− and FAAH+/+ mice (Table 2, not given)",nearly identical
"CCCCC/C=C\C/C=C\C/C=C\C/C=C\CCCC(=O)NCCO [anandamide, N-arachidonoyl-ethanolamine]",reduction in spontaneous activity,"FAAH−/− and FAAH+/+ mice [1]; FAAH−/− mice, 50 mg/kg ip",84±8%
same,ED50,"FAAH−/− and FAAH+/+ mice [1]; Mus musculus, ip, read-out: ED50, hypomotility (locomotor activity)",< 6.25 mg/kg
same,"analgesia in the tail immersion test, maximum possible effect (MPE)","FAAH−/− and FAAH+/+ mice [2]; FAAH−/− mice, 50 mg/kg ip",89±11%
same,ED50,"FAAH−/− and FAAH+/+ mice [2]; Mus musculus, ip, read-out: ED50, antinociception (tail-immersion)",13 mg/kg
same,time by which catalepsy gradually dissipated,"FAAH−/− and FAAH+/+ mice [3]; FAAH−/− mice, 50 mg/kg",≤ 4 h
same,time post-treatment of most extreme catalepsy,"FAAH−/− and FAAH+/+ mice [3]; FAAH−/− mice, 50 mg/kg",1 h
same,"cataleptic behavior in the bar test, share of the test group",FAAH−/− and FAAH+/+ mice [3]; [11],88%
same,ED50,"FAAH−/− and FAAH+/+ mice [3]; Mus musculus, CL-11, ip, read-out: ED50, catalepsy",20 mg/kg
same,time at which rectal temperature began to return to wild type values,"FAAH−/− and FAAH+/+ mice [4]; FAAH−/− mice, 50 mg/kg",≤ 4 h
same,reduction in rectal temperature,FAAH−/− and FAAH+/+ mice [4]; [11],7.9±0.3 °C
same,ED50,"FAAH−/− and FAAH+/+ mice [4]; Mus musculus, ip, read-out: ED50, hypothermia (rectal temperature)",11 mg/kg
same,time at which the behavioral impact was readily detected,FAAH−/− mice,within five min of treatment
same,time the mice remained immobile,FAAH−/− mice; depending on dose,2 to 4 h
same,behavioral effects in FAAH+/+ mice,"FAAH−/− and FAAH+/+ mice [6]; FAAH+/+ mice, 6.25 to 50 mg/kg ip",failed to produce any significant effects
same,state of treated FAAH−/− mice 24 hr after treatment,"FAAH−/− and FAAH+/+ mice [6]; FAAH−/− mice, 24 hr after treatment",indistinguishable from FAAH^+/+ mice
same,behavioral effects in mice expressing FAAH only in the nervous system,"[7]; FAAH-TG(+) (KO+) mice, 50 mg/kg",sufficient to block the pharmacological effects; also recorded: dramatically reduced
same,behavioral effects in mice lacking FAAH,[7]; FAAH-TG(−) (KO−) mice,displayed significant behavioral effects
same,half-life in vivo,[8],on the order of minutes
C=CCN1CC[C@]23c4c5ccc(O)c4O[C@H]2C(=O)CC[C@@]3(O)[C@H]1C5 [naloxone],effect of pretreatment on activity due to anandamide,"FAAH−/− and FAAH+/+ mice [6]; FAAH−/− mice, 2 mg/kg ip in saline",failed to reduce any activity
CCCCCCCC/C=C\CCCCCCCC(N)=O [oleamide],"hydrolysis by FAAH−/− brain extracts, times more slowly than homozygous wild type brain extracts",[9],50 to 100 times
